pIC50: −log10 of the molar value.
Assays:
SU-DHL-4 cell line = assay: Cell proliferation and viability assay using SU-DHL-4 cell line (Cell Titer-Glo); assay type: cell-based; conditions: Homo sapiens, SU-DHL-4, 120 hours
Method: The following exemplary assay uses a DLBCL cell line, for example, the SU-DHL-4 cell line (Deutsche Sammlung von Mikroorganismen und Zellkulturen GmbH [DSMZ]: catalogue number ACC-495) at 120 hours post-treatment. The seeding density for SU-DHL-4 can be optimized to ensure assay linearity in 1536-well plates.
Increasing concentrations (0.5 nM to […]) of Compounds 1, 2, and 3 were each spotted in a 20-point dilution fashion (unevenly spaced data points) via an acoustic dispenser (EDC ATS-100) into an empty 1536-well plate. The DMSO concentration was kept constant for a final assay concentration of 0.1% DMSO. Prior to testing, SU-DHL-4 cells were grown in RPMI-1640 (Roswell Park Memorial Institute-1640) medium with 10% FBS (fetal bovine serum: HyClone) and expanded in culture flasks to provide sufficient amounts of starting material. Cells were then diluted to 500 cells per well in a 5 μL volume, and added directly to the compound-spotted 1536-well plates. Cells were allowed to grow for 120 hours in 5% CO2 at 37° C. At the time when exposure of cells to compound began (t0), initial viable cell number was assessed via Cell Titer-Glo® Luminescent Cell Viability Assay at a 1 vol: 2 vol ratio according to manufacturer's instructions (Promega Corporation, Madison, Wis.) by quantifying the level of luminescence generated by adenosine-5′-triphosphate (ATP) present in viable cells. After 120 hours, cell viability of the treated cells was assessed via Cell Titer-Glo© and read for luminescence. All growth inhibition curves were processed and evaluated using Activity Base (IDBS, Alameda, Calif.). Cell viability IC50 values were calculated using a four parameter logistic model (sigmoidal dose-response model): y=(A+((B−A)/(1+((C/x)^D)))) wherein: A=YMin B=YMax C=EC50 D=Hill slope IC50=the concentration of the compound when Y=50% of DMSO control Y=cell viability measured as luminescence unit, and x=concentration of compound.

[1] = tested on: OCI-LY10-Luc CNS DLBCL xenograft; assay: OCI-LY10-Luc CNS lymphoma xenograft model (intracranial); assay type: in vivo, Nude (nu/nu) mice; conditions: 30 mg/kg QD oral, 3 weeks
Method: Antitumor activity of Compound 1 was evaluated as a single agent in OCI-LY10-luc diffuse large B-cell lymphoma (DLBCL) xenografted intracranially into nude mice as a model for central nervous system (CNS) lymphoma.
CNS lymphoma study was conducted with OCI-LY-10 cells transfected with luciferase (OCI-LY-10-Luc). Nude (nu/nu) mice were inoculated intracranially into the right cerebral hemisphere of the brain with OCI-LY10-Luc cells. Following inoculation of animals, the tumors were allowed to grow for 5 days. On day 5 following tumor cell inoculation, the mice were imaged using IVIS100 imaging system. The mice having tumors with an average flux ranging between 1×10^7 and 2×10^7 photons/sec were pooled together and randomized into various treatment groups. Compound 1 was formulated in 0.5% Methyl Cellulose, 0.25% Tween 80 and 50 mM Citrate pH 3 (MCT) in water. The animals were orally administered vehicle (MCT) or Compound 1 once daily (QD) for 3 weeks. Doses of Compound 1 ranged between 3 and 30 mg/kg. The positive control pomalidomide (30 mg/kg, QD) formulated in aqueous 0.5% CMC and 0.25% Tween-80 was administered PO. The animals were imaged for bioluminescence once a week using IVIS100 imaging system and monitored for survival. Statistical analysis was performed using a log-rank test between Compound 1-treated and vehicle-treated control groups.

[2] = tested on: SUDHL-6 DLBCL xenograft tumors; assay: SUDHL-6 (DLBCL) xenograft model; assay type: in vivo, female SCID mice; conditions: rituximab 10 mg/kg intraperitoneally BIW, single agent
Method: (§1) Female 6- to 8-weeks-old CB17 SCID mice were obtained from Charles River Laboratories. Mice were housed in a barrier facility in micro-isolator cages at 10 animals per cage. Mice were fed with Harlan-Teklad LM-485 Mouse/Rat Sterilizable Diet and autoclaved water ad libitum and maintained on a 12 hours light-dark cycle. Animals were acclimatized to the animal housing facility for a period of 7 days before the beginning of the experiment. All animal studies were performed under protocols approved by Institutional Animal Care and Use Committees.
(§2) Suspensions of Compound 1 were pared in aqueous 0.5% Methyl Cellulose, 0.25% Tween 80 and 50 mM Citrate pH 3. […]
(§3) Tumor cells were injected subcutaneously in the flank region above the right hind legs of female CB17 SCID mice. […] Tumor volumes were determined before the initiation of treatment and were considered as the starting volumes. Tumors were measured twice a week for the duration of the study. The long and short axes of each tumor were measured using a digital caliper in millimeters. The tumor volumes were calculated using the formula: width^2×length/2. […]
(§4) Xenograft data are expressed as mean±SEM. […]
Xenograft study was conducted with female SCID mice bearing SUDHL-6 DLBCL xenograft tumors. […] Tumors were measured twice a week using calipers and tumor volumes were calculated using the formula of W^2×L/2. […]

[3] = tested on: RL follicular lymphoma xenograft tumors; assay: RL (follicular lymphoma) xenograft model, alone and in combination with rituximab; assay type: in vivo, female SCID mice; conditions: rituximab 25 mg/kg intraperitoneally BIW, single agent
Method: as §1, §2, §3, §4
Xenograft study was conducted with female SCID mice bearing RL follicular lymphoma xenograft tumors. […] Tumors were measured twice a week using calipers and tumor volumes were calculated using the formula of W^2×L/2. […]

[4] = tested on: WSU-DLCL2 DLBCL xenograft tumors; assay: WSU-DLCL2 (DLBCL) xenograft model; assay type: in vivo, female SCID mice; conditions: rituximab 10 mg/kg intraperitoneally BIW, single agent
Method: as §1
Suspensions of Compound 1 were pared in aqueous 0.5% Methyl Cellulose, 0.25% Tween 80 and 50 mM Citrate pH 3. The formulations were homogenized using a Teflon pestle and mortar (Potter-Elvehjem tissue grinder). For multiday studies, the compound was freshly formulated every day. Compound 1 and vehicle were administered by oral gavage. Rituximab was diluted in 0.9% saline and administered intraperitoneally.
Tumor cells were injected subcutaneously in the flank region above the right hind legs of female CB17 SCID mice. When the tumor volumes reach to approximately 200 mm^3, mice bearing tumors of 150-300 mm^3 were randomly assigned to receive oral doses of vehicle, Compound 1, rituximab or combination of Compound 1 (5 days on and 2 days off for 3 weeks) and rituximab (twice a week) for the duration of the study. Tumor volumes were determined before the initiation of treatment and were considered as the starting volumes. Tumors were measured twice a week for the duration of the study. The long and short axes of each tumor were measured using a digital caliper in millimeters. The tumor volumes were calculated using the formula: width^2×length/2. The tumor volumes were expressed in cubic millimeters (mm^3).
Xenograft data are expressed as mean±SEM. Statistical analyses were performed using GraphPad Prism. […]
Xenograft study was conducted with female SCID mice bearing WSU-DLCL2 DLBCL xenograft tumors. […] Tumors were measured twice a week using calipers and tumor volumes were calculated using the formula of W^2×L/2. […]

Molecule: O=C1CC[C@@H](N2C(=O)c3cccc(NCc4ccc(CN5CC(N6CCOCC6)C5)cc4F)c3C2=O)C(=O)N1 [Compound 2, (R)-2-(2,6-dioxopiperidin-3-yl)-4-((2-fluoro-4-((3-morpholinoazetidin-1-yl)methyl)benzyl)amino)isoindoline-1,3-dione]
- pIC50 (SU-DHL-4 cell line): > 6.70

Molecule: O=C1CCC(N2C(=O)c3cccc(NCc4ccc(CN5CC(N6CCOCC6)C5)cc4F)c3C2=O)C(=O)N1 (stereo not shown) [Compound 3, 2-(2,6-dioxopiperidin-3-yl)-4-((2-fluoro-4-((3-morpholinoazetidin-1-yl)methyl)benzyl)amino)isoindoline-1,3-dione]
- pIC50 (SU-DHL-4 cell line): > 6.70

Molecule: Nc1cccc2c1C(=O)N(C1CCC(=O)NC1=O)C2=O (stereo not shown) [Pomalidomide, reference compound]
- % BLI Inhibition on Day 26 ([1]; relative to vehicle control): 68.8%
- Median Survival ([1]; vehicle 35 days): 50 days

Molecule: Rituximab [reference compound]
- tumor volume reduction [2]: 54%
- tumor volume reduction [3]: 56%
- tumor volume reduction [4]: 66%

From patent publication US11390617B2, “Methods of treating non-Hodgkin lymphoma using 2-(2,6-dioxopiperidin-3-yl)-4-((2-fluoro-4-((3-morpholinoazetidin-1-yl)methyl)benzyl)amino)isoindoline-1,3-dione” (Celgene Corporation, priority 2019, dated 2022)
